One experiment concerns TRP2-specific CTL. The experiment in a line: CTL inducibility of TRP2 peptide vaccine with adjuvant (tetramer staining). Format: in vivo, C57BL/6JJcl mice. Here is the method: C57BL/6JJcl mice (6 to 8 weeks old) were purchased from CLEA Japan, Inc.
an adjuvant of the present invention or the well-known CpG ODN
The specific immunity was induced by vaccinating a mouse twice at 7 days intervals. Each vaccine was that 100 μg of TRP2 peptide, and 1.57 or 4.71 nmol of an adjuvant of the present invention or well-known CpG ODN, were dissolved in 1×PBS. 100 μL of the vaccine was administered subcutaneous injection on the flank of a mouse.
100 μL of the emulsion vaccine was administered subcutaneous injection on the flank of a mouse twice at 7 days intervals.
On 7 days after second vaccination, the blood was collected, red blood cells was removed by BD Pharm Lyse (BD pharmingen), and the white blood cells were suspended in FACS buffer (1% fetal bovine serum, 2 mM PBS with EDTA). Anti-mouse CD16/32 monoclonal antibody (BioXcell) was added thereto, and Fc receptor blocking was carried out at 4° C. for 30 minutes. […] Then, staining was carried out with DAPI (Invitrogen) and the cells were washed twice with FACS buffer. It was resuspended in FACS buffer and analyzed by FACS verse Flow Cytometer (BD bioscience) and FAC Suite software (BD bioscience). For analysis, after DAPI negative fraction was gated, white blood cells fraction were provided using forward and side-way scattering as indicators. In the white blood cells fraction, both positive cells of Alexa 647-CD8 and PE-H-2Kb Tetramer were defined as CTLs. CTL ratio in white blood cells was used for evaluation.
After calculation of the average CTL inducibility of each group per experiment, the ratio against average value of CTL inducibility of ssCpG ODN, ODN1826 (SEQ-1) or ODN2006 (SEQ-49) as a control was calculated.
In the case of an adjuvant comprising ODN1826 (Average of CTL inducibility of the adjuvant group)/(Average of CTL inducibility of the ODN1826 group)=the ratio against average value In the case of an adjuvant comprising ODN2006 (Average of CTL inducibility of the adjuvant group)/(Average of CTL inducibility of the ODN2006 group)=the ratio against average value
CTL inducibility of each adjuvant was shown when CTL inducibility of ssCpG ODN was taken as 1, so the bigger value means the higher CTL inducibility.

The next experiment relates to recombinant PCRV protein. The experiment in a line: Inducibility of antibody production in immunization by PCRV antigen vaccine (antibody titer). Format: in vivo. Conditions: A/J mice, recombinant PCRV protein with adjuvant, intradermal; antiserum Day 33; FIG. 15.
The next experiment concerns B16F10 cells. As to the kind of experiment: Anti-tumor effect in the absence of a tumor antigen peptide. Format: in vivo, mouse. The settings on record: Table 69, compared to ODN2006 (SEQ-49). The procedure:
After immunization by TRP2 peptide vaccine, B16F10 cells (ATTC) which is mouse melanoma expressing TRP2 protein was subcutaneously transplanted to evaluate anti-tumor effect. In a similar method to Example 3 A), on the next day that tetramer-positive ratio in peripheral blood of mouse vaccinated twice every 7 days was observed, B16F10 cells (1×10^5 cells/mouse) were subcutaneously transplanted in the right shoulder. The major and minor axes of the engrafted tumor were measured every 2 to 3 days, and the tumor volume was calculated by the formula: (major axis×minor axis^2)/2 Calculation method for indicators of anti-tumor effect For the adjuvant comprising ODN1826 100·(average tumor volume of adjuvant group)/(average tumor volume of ODN1826 group) For the adjuvant comprising ODN2006 100·(average tumor volume of adjuvant group)/(average tumor volume of ODN2006 group)
Antigen-specific CTL inducibility and anti-tumor effect of ODN2006 (SEQ-49) and SEQ-121 in the absence of a tumor antigen peptide were evaluated. In similar methods of A) and B) of Example 3, the effect of vaccine without a tumor antigen peptide was verified. Both of the antigen-specific CTL values of SEQ-49 and SEQ-121 were undetectable.

Procedure for recombinant PCRV protein: Perv nucleotide sequence (SEQ ID NO: 48) derived from Pseudomonas aeruginosa Strain PAO1 was cloned at NdeI-XhoI site in pET21a vector, and Escherichia coli strain BL21 (DE3) was transformed with the prepared plasmid. Strain perV-BL21 (DE3) was cultured in 500 mL of LB/Ampicillin liquid medium at 37° C., and 200 μL of 0.1 M IPTG was added when OD600 became 0.5 to induce expression of recombinant PCRV protein. After culturing at 16° C. for 18 hours, bacteria was separated by a centrifuge, and 15 ml of Buffer A (50 mM Tris-HCl (pH8.0), 0.2M NaCl) comprising 0.5% lysozyme (SIGMA Corporation) was added. After putting at 4° C. for 30 minutes, ultrasonic treatment was carried out. After centrifugation at 12,000 rpm for 10 minutes, soluble fraction was obtained. 1 mL of Ni-NTA agarose gel (QIAGEN) was added to Polyprep column (BIO-RAD Laboratories, Inc) and equilibrated with 10 mL of Buffer A. Soluble fraction was added to the column and passed. […] The resulting recombinant PCRV protein was measured the concentration with BCA assay kit (PIERCE) and kept at −80° C. […]
Antibody titer was measured as blow. […] 20 μL/well of 0.5 N sulfuric acid (Nacalai) was added, and absorbance at 450 nm was measured with a plate reader. The dilution ratio when absorbance at 450 nm is 1.0 was calculated and put as an antibody titer.

With Amph1826 [SEQ-2], the “Ratio of average value of antigen-specific CTL” value (“Ratio … of antigen-specific CTL” for short) amounted to 1.68 with TRP2-specific CTL (Table 34, 1.57 nmol/head, ODN1826 (SEQ-1) group = 1); 3.23 in the experiment with TRP2-specific CTL (Table 36, 1.57 nmol/head (Montanide 100 μL), ODN1826 (SEQ-1) group = 1); 3.11 in the experiment with TRP2-specific CTL (Table 37, 1.57 nmol/head, ODN1826 (SEQ-1) group = 1). Also, the “CTL inducibility (in words)” value in the experiment on TRP2-specific CTL (adjuvants comprising ODN1826) is reported as “higher CTL inducibility than ODN1826”.
With ODN2006 [SEQ-49], the “Ratio … of antigen-specific CTL” value in the experiment on TRP2-specific CTL (Table 38, 4.71 nmol/head, ODN2006 (SEQ-49) group = 1) came to 1.00; with TRP2-specific CTL (Table 39, 4.71 nmol/head, ODN2006 (SEQ-49) group = 1), 1.00; with TRP2-specific CTL (Table 40, 4.71 nmol, ODN2006 (SEQ-49) group = 1) it was 1.00; in the experiment with TRP2-specific CTL (Table 41, 4.71 nmol, ODN2006 (SEQ-49) group = 1), 1.00; in the experiment with TRP2-specific CTL (Table 42, 4.71 nmol, ODN2006 (SEQ-49) group = 1) it was 1.00; in the experiment on TRP2-specific CTL (Table 43, 4.71 nmol, ODN2006 (SEQ-49) group = 1), 1.00. Besides, the “Ratio … of antigen-specific CTL” value is given as 1.00 with TRP2-specific CTL (Table 44, 4.71 nmol, ODN2006 (SEQ-49) group = 1); 1.00 in the experiment on TRP2-specific CTL (Table 45, 4.71 nmol, ODN2006 (SEQ-49) group = 1); 1.00 in the experiment on TRP2-specific CTL (Table 46, 4.71 nmol, ODN2006 (SEQ-49) group = 1); 1.00 in the experiment on TRP2-specific CTL (Table 47, 4.71 nmol, ODN2006 (SEQ-49) group = 1); 1.00 in the experiment on TRP2-specific CTL (Table 48, 4.71 nmol, ODN2006 (SEQ-49) group = 1); 1.00 in the experiment with TRP2-specific CTL (Table 49, 4.71 nmol, ODN2006 (SEQ-49) group = 1). The “Ratio … of antigen-specific CTL” value turned out to be 1.00 in the experiment on TRP2-specific CTL (Table 50, 4.71 nmol, ODN2006 (SEQ-49) group = 1); 1.00 in the experiment with TRP2-specific CTL (Table 51, 4.71 nmol, ODN2006 (SEQ-49) group = 1); 1.00 in the experiment with TRP2-specific CTL (Table 52, 4.71 nmol, ODN2006 (SEQ-49) group = 1); 1.00 with TRP2-specific CTL (Table 53, 4.71 nmol, ODN2006 (SEQ-49) group = 1); 1.00 in the experiment on TRP2-specific CTL (Table 54, 4.71 nmol, ODN2006 (SEQ-49) group = 1); 1.00 in the experiment on TRP2-specific CTL (Table 55, 4.71 nmol, ODN2006 (SEQ-49) group = 1). Moreover, the “Ratio … of antigen-specific CTL” value was determined as 1.00 in the experiment with TRP2-specific CTL (Table 57, 4.71 nmol, ODN2006 (SEQ-49) group = 1); 1.00 in the experiment with TRP2-specific CTL (Table 58, 4.71 nmol, ODN2006 (SEQ-49) group = 1); 1.00 with TRP2-specific CTL (Table 59, 4.71 nmol, ODN2006 (SEQ-49) group = 1); 1.00 in the experiment with TRP2-specific CTL (Table 60, 4.71 nmol, ODN2006 (SEQ-49) group = 1); 1.00 in the experiment on TRP2-specific CTL (Table 61, 4.71 nmol, ODN2006 (SEQ-49) group = 1); 1.00 in the experiment with TRP2-specific CTL (Table 62, 4.71 nmol, ODN2006 (SEQ-49) group = 1). Besides, the “Ratio … of antigen-specific CTL” value with TRP2-specific CTL (Table 63, 4.71 nmol, ODN2006 (SEQ-49) group = 1) turned out to be 1.00; in the experiment on TRP2-specific CTL (Table 67, 4.71 nmol, ODN2006 (SEQ-49) group = 1), 1.00; with TRP2-specific CTL (Table 68, 4.71 nmol, ODN2006 (SEQ-49) group = 1) it was 1.00. Moreover, the “Ratio of average value of antigen specific CTL” value in the experiment with TRP2-specific CTL (Table 64, 4.71 nmol, ODN2006 (SEQ-49) group = 1) stood at 1.00. Besides, in the experiment with recombinant PCRV protein, the “antibody titer (dilution ratio when absorbance at 450 nm is 1.0)” value is given as 5.3×10^5. Also, the “Tumor inhibition rate (Day 12 after transplantation)” value with B16F10 cells was 0.00%.
